# Source: patent US10342799B2, “Compositions and methods for prophylaxis and therapy for Meniere's disease” (priority 2013, dated 2019)
# Test system: patients diagnosed with active definite MD (Ménière's vertigo attacks)
# Assay: Retrospective and prospective review of active definite Meniere's disease patients treated with lamotrigine (vertigo attacks, DHI, side effects)
# Type: in vivo, human patients
# Description: Population. A retrospective and prospective review was performed on patients who were older than 18 years old, diagnosed with active definite MD at the Dent Dizziness, Balance and Tinnitus Center and treated with lamotrigine. Definite MD is defined as two or more episodes of vertigo that last for ≥20 minutes with documented hearing loss on at least one occasion, tinnitus and/or aural fullness, and other causes excluded. Active MD status requires patients to experience at least three vertigo attacks during the three months prior to treatment.
# Clinical data. Data collected included demographic information, history of MD, prior medical treatment, clinical diagnosis, clinical presentation, stage of the disease, and frequency of Ménière's vertigo attacks prior to and after treatment. The staging of MD was based on the four-tone average of the pure-tone thresholds at 0.5, 1, 2 and 3 kHz of the worst audiogram during the six months before treatment. The questionnaires used were the Dizziness Handicap Inventory (DHI) and the Center's Dizziness Questionnaire. Current or past history of anxiety/depression, migraine problems, and use of anti-anxiety medication were also analyzed.
# Outcome variable. The primary outcome measure was the reduction of Ménière's vertigo attacks at both three months after lamotrigine initiation (primarily the titration period) and three months after treatment at maintenance dosage. Secondary outcome measures included DHI scores and patient reports of clinical improvement. Data were confirmed by review of physicians' notes, vestibular and audiogram testing results, and supporting data. Means and standard deviations (SDs) were calculated for all continuous variables and proportions for all categorical variables. The primary research questions were whether or not lamotrigine led to a reduction of Ménière's vertigo attacks and whether or not lamotrigine led to improvement in quality of life for MD patients.
# Statistical analysis. The overall difference in Meniere's vertigo attacks among 3 months pre-treatment, 3 months of titration, and 3 months of maintenance treatment was evaluated by Friedman's test, which is a nonparametric test for treatment differences in a randomized complete block design. The Wilcoxon signed rank sum test, which is the nonparametric version of a paired sample t-test, was used for the pairwise comparisons of Meniere's vertigo attacks from the three different time periods as well as DHI before and after treatment. Fisher's exact test was used to evaluate whether treatment effectiveness was affected by migraine or anxiety comorbidities. For all of these statistical tests, the tests were two-sided, and the level of significance was set to 0.05. Differences were considered significant if the p-value was less than 0.05.
# Lamotrigine titration. All 45 patients began a titration of lamotrigine of 25 mg BID for two weeks to 50 mg BID for two weeks. Final maintenance dosages varied between 25 mg BID and 200 mg BID due to individual patient tolerance and response; 29 patients were on either 100 mg BID or 150 mg BID maintenance dosages (64%). There was one patient who was lost to follow-up. There were four patients who discontinued lamotrigine due to side effects: one experienced stomachaches and diarrhea, one complained of hallucinations, and two developed rashes.
# [1] = mean (SD), three months prior to treatment: 12.7 (SD 11.6)
# [2] = number of patients, value in brackets
smiles,measurement,setting,value
"Nc1nnc(-c2cccc(Cl)c2Cl)c(N)n1 [Lamotrigine, 6-(2,3-Dichlorophenyl)-1,2,4-triazine-3,5-diamine]",vertigo attack reduction and remission: influence of migraine comorbidity,"Fisher's exact test, p=0.414",not affected
same,vertigo attack reduction and remission: influence of anxiety/depression comorbidity,"Fisher's exact test, p=1.000",not affected
same,patients who reported improvement and had anxiety/depression disorder,among the 38 improved patients,28 patients
same,patients who reported improvement and had migraine,among the 38 improved patients,20 patients
same,mean post-treatment DHI score,"mean (SD), prior treatment DHI 47.6 (SD 19.6)",28.6 (SD 20.9)
same,mean number of vertigo attacks after three months of maintenance dosage,[1],1.9 (SD 4.6)
same,mean number of vertigo attacks three months after initiation (primarily the titration period),[1],4.5 (SD 6.2)
same,"Side effect, MD with migraine",number of patients,1
same,"Side effect, MD without migraine",number of patients,3
same,"Side effect, Total",number of patients,4
same,"Vertigo attack free, MD with migraine",number of patients,11
same,"Vertigo attack free, MD without migraine",number of patients,10
same,"Vertigo attack free, Total",number of patients,21
same,"Vertigo reduced, MD with migraine",number of patients,9
same,"Vertigo reduced, MD without migraine",number of patients,8
same,"Vertigo reduced, Total",number of patients,17
same,"Vertigo unchanged, MD with migraine",number of patients,1 (1)
same,"Vertigo unchanged, MD without migraine",number of patients,1 (1)
same,"Vertigo unchanged, Total",number of patients,2
same,"Side effect, MD with anxiety",[2],3
same,"Side effect, MD without anxiety",[2],1
same,"Vertigo attack free, MD with anxiety",[2],15
same,"Vertigo attack free, MD without anxiety",[2],6
same,"Vertigo reduced, MD with anxiety",[2],13
same,"Vertigo reduced, MD without anxiety",[2],4
same,"Vertigo unchanged, MD with anxiety",[2],1 (1)
same,"Vertigo unchanged, MD without anxiety",[2],1 (1)
same,patients with complete resolution of Ménière's vertigo attacks during the three month maintenance period,of 38 improved patients,21 patients
same,patients who discontinued lamotrigine due to side effects,of 45 patients,four
same,patients who discontinued with hallucinations,of 45 patients,one
same,patients who discontinued with rashes,of 45 patients,two
same,patients who discontinued with stomachaches and diarrhea,of 45 patients,one
same,proportion of patients who reported an improvement in Ménière's vertigo attacks,out of all 45 study patients,84%
same,patients who reported an improvement in Ménière's vertigo attacks with lamotrigine treatment,"out of all 45 study patients, maintenance 25-200 mg BID",38 patients
same,"post-DHI score less than pre-DHI score, on average",p=0.001,19 points
same,vertigo attacks during 3 months of maintenance relative to 3 months of titration,p=0.04,significantly fewer
same,vertigo attacks during the two treatment periods compared to the 3 months prior to treatment,"titration and maintenance periods, p<0.001, p<0.001, Wilcoxon signed rank",significantly fewer
